Experimental data from article PMC8980233, “Differentiating the Neuropharmacological Properties of Nicotinic Acetylcholine Receptor-Activating Alkaloids” (Frontiers in Pharmacology, 2022).
Entries after “also recorded” stand apart in the source; their conditions may differ.

Tests used:
[1] = system: C57Bl/6 mice; assay: Tolerability test (body weight, body temperature, passive signs, manipulation responses); settings: for BT (°C) naïve / Manipulations naïve / Passive naïve: baseline; for BW Day 1 / BW Day 2: mean ± SD
Protocol: In brief, mice were single-housed prior to the test and evaluated for baseline body weight, body temperature, and other parameters. […] On day 1, the mice were i. p. injected with saline (vehicle) or a test compound at 10 ml/kg body weight. Then, body temperature was measured at 15 min, 4 h, and 24 h and body weight on days 1 and 2. Neurological and motor parameters were evaluated at 15 min, 2 h, and 4 h after administration. The list of parameters is provided in Supplementary Figure S1 in Supplementary Material S1.
In addition, within 5 min after the 15-min observation period, mice were placed in open-field chambers for 30 min to determine their general motor activity (distance traveled), ambulatory time, and number of rears. The open-field chambers were made of Plexiglas (27.3 × 27.3 × 20.3 cm; Med Associates Inc, St Albans, VT, United States) surrounded by infrared photobeam sources (16 × 16 × 16 beams). Horizontal activity (distance and time traveled) and vertical activity (number and frequency of rears) were measured by consecutive beam breaks. At the end of each open-field test session, the chambers were thoroughly cleaned with NOLVASAN® solution (Zoetis Services LLC, Parsippany, NJ, United States). Four mice were used per treatment condition. Mice were terminated after completion of the last tolerability observation.
All compounds were diluted in saline, and the pH was adjusted to approximately 7.0 with HCl or NaOH on the day of the experiment. […] The doses were calculated based on the free base molecular weight of the compounds.
For the tolerability tests, passive signs and manipulation responses were analyzed for effects of the treatment by the Kruskal–Wallis test. Body temperature and body weight data were analyzed by two-way repeated measures analysis of variance (ANOVA). The total distance and time traveled and number and frequency of rears in the open-field activity test were analyzed by one-way ANOVA, followed by the Tukey post-hoc test. For the analyses of the zebrafish NTT data, one-way ANOVA was used, followed by Dunnett’s multiple comparison test, if it passed the Shapiro-Wilk normality test. […] An effect was considered significant if p < 0.05. The half maximal effective concentration (EC50) and half-maximal inhibitory concentration (IC50) for the receptor pharmacology and neurotransmitter release assay were determined by using nonlinear regression analysis. Statistical analyses were conducted using GraphPad Prism.

[2] = system: C57Bl/6 mice; assay: SmartCube behavioral profiling; type: in vivo; settings: single i.p. injection
Excerpt: The SmartCube^ ® system is a unique mouse behavior profiling system developed by PsychoGenics Inc. It extracts over 2000 spontaneous and challenge-induced behavioral features during a session ([Alexandrov et al., 2015]; [Alexandrov et al., 2016]). The recorded behavioral parameters are then compared against the behavioral profiles of marketed reference compounds in the database, and the test compounds are classified into known drug classes using PsychoGenics’ proprietary bioinformatics algorithms. In brief, mice were i. p. injected with vehicle or test compound at 10 ml/kg body weight and placed in the SmartCube^ ® arena (24 cm × 25 cm) 15 min later. Spontaneous and stimulus-induced behaviors of mice were recorded using force sensors distributed throughout the arena during a 45-min test session. In addition, three high-resolution video cameras provided a constant 3-dimensional (3D) view of the mouse behavior in the SmartCube^ ® arena throughout the testing period. The bedding was vacuumed, and the arena was cleaned with NOLVASAN^ ® solution between each run. Data from the SmartCube^ ® test were processed using PsychoGenics’ proprietary Computer Vision feature extraction, Bayesian probabilistic density models, and data mining algorithms, trained on a large library of reference compounds with known therapeutic indications to predict the underlying class of each test compound ([Alexandrov et al., 2015]; [Alexandrov et al., 2016]). Twelve mice were tested per condition. Mice were terminated after the completion of the SmartCube^ ® test.
The doses were calculated based on the free base molecular weight. The doses were selected based on the tolerability test results.

[3] = molecular target: α3β4 nAChR (Homo sapiens, UniProt P30926+P32297); assay: nAChR functional assay, automated patch-clamp; type: cell-based; settings: mean ± S.D.; no effect = up to 33 μM
α3β4 nAChR, sequence (P32297 32-505): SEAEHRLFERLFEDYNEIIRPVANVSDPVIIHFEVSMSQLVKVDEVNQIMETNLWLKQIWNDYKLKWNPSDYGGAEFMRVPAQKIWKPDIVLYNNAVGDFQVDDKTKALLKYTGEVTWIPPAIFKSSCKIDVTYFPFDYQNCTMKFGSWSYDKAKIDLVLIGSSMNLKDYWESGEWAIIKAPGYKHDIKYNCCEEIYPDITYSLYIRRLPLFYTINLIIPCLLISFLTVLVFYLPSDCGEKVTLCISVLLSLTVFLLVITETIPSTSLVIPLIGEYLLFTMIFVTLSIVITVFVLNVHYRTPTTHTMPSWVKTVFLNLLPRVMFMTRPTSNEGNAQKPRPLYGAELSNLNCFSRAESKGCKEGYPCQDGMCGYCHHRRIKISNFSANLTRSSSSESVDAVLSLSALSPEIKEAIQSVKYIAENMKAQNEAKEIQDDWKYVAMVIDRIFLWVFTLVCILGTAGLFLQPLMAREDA
α3β4 nAChR, sequence (P30926 22-498): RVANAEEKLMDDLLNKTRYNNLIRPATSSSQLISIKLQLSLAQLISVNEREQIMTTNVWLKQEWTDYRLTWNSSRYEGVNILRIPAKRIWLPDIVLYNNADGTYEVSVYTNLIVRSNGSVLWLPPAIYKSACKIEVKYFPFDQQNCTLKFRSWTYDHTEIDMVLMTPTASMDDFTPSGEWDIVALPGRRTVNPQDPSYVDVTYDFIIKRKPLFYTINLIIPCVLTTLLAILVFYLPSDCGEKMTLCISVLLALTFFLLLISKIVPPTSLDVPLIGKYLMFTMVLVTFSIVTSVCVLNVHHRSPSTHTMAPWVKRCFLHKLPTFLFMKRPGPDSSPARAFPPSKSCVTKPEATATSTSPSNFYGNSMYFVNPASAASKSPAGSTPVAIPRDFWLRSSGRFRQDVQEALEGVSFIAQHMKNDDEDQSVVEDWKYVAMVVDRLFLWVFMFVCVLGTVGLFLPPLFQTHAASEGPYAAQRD
Protocol: The following selection antibiotics were used for the cell lines: G418 (0.25 mg/ml; Sigma-Aldrich) and Zeocin^TM (0.4 mg/ml; InvivoGen, San Diego, CA, United States) for α7/Ric3 nAChR and α3β4 nAChR cells; puromycin (8 μg/ml; InvivoGen) and hygromycin B (0.4 mg/ml; Gibco) for α4β2 nAChR cells; and G418 (0.5 mg/ml), puromycin (0.25 μg/ml), and hygromycin B (0.02 mg/ml) for α6/3β2/β3 nAChR cells. […] The human nAChRs were selected due to the lack of commercially available nAChR expression systems for mouse or zebrafish.
Data were analyzed using the Patchmaster software and corrected for leak current. The data acceptance criteria were as follows: seal resistance >100 MΩ; seal resistance loss variation <50%; access resistance <20 MΩ; and minimum current amplitude elicited by maximal effect concentration acetylcholine >50 pA. Offline data analysis was performed in OpenOffice™ (v4.1.2; The Apache Software Foundation, Wakefield, MA, United States). […] Igor Pro (v6.2.2.2; WaveMetrics, Lake Oswego, OR, United States) or Prism (v8.2.1) were used for assessing the concentration–response curves.

With `CN1C(=O)CC[C@H]1c1cccnc1` [Cotinine, (-)-cotinine] the tolerability ([1]; mouse, in vivo, ip, 10 mg/kg) was “well tolerated”, the “SmartCube drug classification / behavioral features” value ([2]; all doses tested) was “no detectable effect” and the “α3β4 nAChR EC50 in µM” value [3] was “no detectable activities; also recorded: No effect *”.

In the case of `CN1CCC[C@H]1c1cccnc1` [Nicotine, (-)-Nicotine], the “BT (°C) naïve” value ([1]; 0.25 mg/kg group) is reported as 37.83 ± 0.15 °C, the “Manipulations naïve” value ([1]; 0.25 mg/kg group) is reported as 0.00 ± 0.00 and the “Passive naïve” value ([1]; 0.25 mg/kg group) is reported as 0.00 ± 0.00. For the same compound, the “BT (°C) 15min” value ([1]; 0.25 mg/kg i.p.) was 37.48 ± 0.98 °C, the “BT (°C) 4hr” value ([1]; 0.25 mg/kg i.p.) was 36.88 ± 0.97 °C and the “BT (°C) 24hr” value ([1]; 0.25 mg/kg i.p.) was 36.43 ± 0.87 °C. The “Manipulations 15min” value ([1]; 0.25 mg/kg i.p.) was 0.00 ± 0.00, the “Manipulations 2hr” value ([1]; 0.25 mg/kg i.p.) was 0.00 ± 0.00 and the “Manipulations 4hr” value ([1]; 0.25 mg/kg i.p.) was 0.00 ± 0.00. The “Passive 15min” value ([1]; 0.25 mg/kg i.p.) was 0.00 ± 0.00, the “Passive 2hr” value ([1]; 0.25 mg/kg i.p.) was 0.00 ± 0.00 and the “Passive 4hr” value ([1]; 0.25 mg/kg i.p.) was 0.00 ± 0.00. The “BW Day 1” value ([1]; 0.25 mg/kg i.p.) was 24.54 ± 0.97, the “BW Day 2” value ([1]; 0.25 mg/kg i.p.) was 24.33 ± 0.99 and the “BT (°C) naïve” value ([1]; 0.5 mg/kg group) was 37.93 ± 0.17 °C. For the same compound, the “Manipulations naïve” value ([1]; 0.5 mg/kg group) was 0.00 ± 0.00, the “Passive naïve” value ([1]; 0.5 mg/kg group) was 0.00 ± 0.00 and the “BT (°C) 15min” value ([1]; 0.5 mg/kg i.p.) was 36.48 ± 0.90 °C. For the same compound, the “BT (°C) 4hr” value ([1]; 0.5 mg/kg i.p.) was 36.50 ± 0.44 °C, the “BT (°C) 24hr” value ([1]; 0.5 mg/kg i.p.) was 36.65 ± 0.41 °C and the “Manipulations 15min” value ([1]; 0.5 mg/kg i.p.) was 0.00 ± 0.00. For the same compound, the “Manipulations 2hr” value ([1]; 0.5 mg/kg i.p.) was 0.00 ± 0.00, the “Manipulations 4hr” value ([1]; 0.5 mg/kg i.p.) was 0.00 ± 0.00 and the “Passive 15min” value ([1]; 0.5 mg/kg i.p.) was 0.00 ± 0.00. For the same compound, the “Passive 2hr” value ([1]; 0.5 mg/kg i.p.) was 0.00 ± 0.00, the “Passive 4hr” value ([1]; 0.5 mg/kg i.p.) was 0.00 ± 0.00 and the “BW Day 1” value ([1]; 0.5 mg/kg i.p.) was 24.58 ± 0.93. For the same compound, the “BW Day 2” value ([1]; 0.5 mg/kg i.p.) was 24.76 ± 1.20, the “BT (°C) naïve” value ([1]; 1 mg/kg group) was 37.90 ± 0.16 °C and the “Manipulations naïve” value ([1]; 1 mg/kg group) was 0.00 ± 0.00. The “Passive naïve” value ([1]; 1 mg/kg group) was 0.00 ± 0.00, the “BT (°C) 15min” value ([1]; 1 mg/kg i.p.) was 33.53 ± 0.85 °C and the “BT (°C) 4hr” value ([1]; 1 mg/kg i.p.) was 36.55 ± 0.48 °C. The “BT (°C) 24hr” value ([1]; 1 mg/kg i.p.) was 36.53 ± 0.31 °C, the “Manipulations 15min” value ([1]; 1 mg/kg i.p.) was 0.00 ± 0.00 and the “Manipulations 2hr” value ([1]; 1 mg/kg i.p.) was 0.00 ± 0.00. For the same compound, the “Manipulations 4hr” value ([1]; 1 mg/kg i.p.) was 0.00 ± 0.00, the “Passive 15min” value ([1]; 1 mg/kg i.p.) was 0.00 ± 0.00 and the “Passive 2hr” value ([1]; 1 mg/kg i.p.) was 0.00 ± 0.00. The “Passive 4hr” value ([1]; 1 mg/kg i.p.) was 0.00 ± 0.00, the “body temperature 15 min after the injection” value ([1]; 1 mg/kg i.p.) was “decreased the body temperature” and the “BW Day 1” value ([1]; 1 mg/kg i.p.) was 24.55 ± 0.94. The “BW Day 2” value ([1]; 1 mg/kg i.p.) was 24.10 ± 0.61 and the “SmartCube drug classification / behavioral features” value ([2]; highest dose 0.5 mg/kg body weight) was “anxiolytic-like behavior features”.
